Activity calls are given as the source filed them. The rule behind the calls is not given here.
Legend:
cells = settings: Homo sapiens, YCC-11, 72 h
Description: Cytotoxicity against human HDACi-sensitive YCC-11 cells assessed as reduction in cell growth incubated for 72 hrs by MTS assay

MCF7 = experiment: Cytotoxicity in human MCF7 cells assessed as reduction in cell viability incubated for 72 hrs by MTT assay; type: functional, cell-based
HepG2 = experiment: cells; settings: Homo sapiens, HepG2, 72 h
Description: Antiproliferative activity against human HepG2 cells assessed as cell growth inhibition measured after 72 hrs by MTT assay

MDA-MB-231 [1] = experiment: Antiproliferative activity against human MDA-MB-231 cells assessed as cell growth inhibition measured after 72 hrs by MTT assay; type: functional, cell-based; settings: MDA-MB-231, 72 h
[2] = Cytotoxicity against human HDACi-sensitive YCC3 cells assessed as reduction in cell growth incubated for 72 hrs by MTS assay; type: functional, cell-based; settings: YCC3/7, 72 h
MDA-MB-468 = experiment: Cytotoxicity in human MDA-MB-468 cells assessed as reduction in cell viability incubated for 72 hrs by MTT assay; type: functional, cell-based
Histone deacetylase 7 = target: T1, Histone deacetylase 7 (Homo sapiens, UniProt Q8WUI4); experiment: Inhibition of human recombinant HDAC7 expressed in baculovirus using fluorogenic peptide p53 residues 379-382 (RHKK(Ac)AMC) as substrate by Fluorescence analysis
T1 sequence (Q8WUI4 whole entry): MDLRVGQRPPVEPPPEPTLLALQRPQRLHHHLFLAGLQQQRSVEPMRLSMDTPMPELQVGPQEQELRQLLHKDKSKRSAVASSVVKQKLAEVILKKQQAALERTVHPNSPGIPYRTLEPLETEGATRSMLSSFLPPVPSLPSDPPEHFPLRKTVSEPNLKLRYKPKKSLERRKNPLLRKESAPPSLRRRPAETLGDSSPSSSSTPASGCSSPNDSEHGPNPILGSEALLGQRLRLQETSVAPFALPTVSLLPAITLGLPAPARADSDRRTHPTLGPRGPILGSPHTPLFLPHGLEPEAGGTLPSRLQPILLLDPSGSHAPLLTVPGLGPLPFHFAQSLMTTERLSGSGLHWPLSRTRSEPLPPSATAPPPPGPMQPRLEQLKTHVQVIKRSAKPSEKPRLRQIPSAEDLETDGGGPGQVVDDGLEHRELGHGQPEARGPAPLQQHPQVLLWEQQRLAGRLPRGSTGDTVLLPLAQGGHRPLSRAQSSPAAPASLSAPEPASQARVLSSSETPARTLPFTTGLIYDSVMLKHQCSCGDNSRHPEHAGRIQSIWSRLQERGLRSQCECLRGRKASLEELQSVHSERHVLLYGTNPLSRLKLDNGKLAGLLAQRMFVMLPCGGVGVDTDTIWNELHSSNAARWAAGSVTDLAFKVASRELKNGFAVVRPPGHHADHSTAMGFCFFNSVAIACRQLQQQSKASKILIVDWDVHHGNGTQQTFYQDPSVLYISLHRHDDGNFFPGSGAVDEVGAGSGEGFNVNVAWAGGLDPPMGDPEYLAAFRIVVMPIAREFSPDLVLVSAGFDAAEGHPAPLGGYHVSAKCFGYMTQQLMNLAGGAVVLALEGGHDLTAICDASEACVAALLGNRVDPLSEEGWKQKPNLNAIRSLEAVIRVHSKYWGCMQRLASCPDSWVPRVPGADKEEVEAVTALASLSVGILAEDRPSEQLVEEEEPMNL

Histone deacetylase 4 = Histone deacetylase 4 (Homo sapiens, UniProt P56524); experiment: Inhibition of human recombinant HDAC4 expressed in baculovirus using fluorogenic peptide p53 residues 379-382 (RHKK(Ac)AMC) as substrate by Fluorescence analysis
Histone deacetylase 5 = Histone deacetylase 5 (Homo sapiens, UniProt Q9UQL6); experiment: Inhibition of human recombinant HDAC5 expressed in baculovirus using fluorogenic peptide p53 residues 379-382 (RHKK(Ac)AMC) as substrate by Fluorescence analysis
Histone deacetylase 9 = Histone deacetylase 9 (Homo sapiens, UniProt Q9UKV0); experiment: Inhibition of human recombinant HDAC9 expressed in baculovirus using fluorogenic peptide p53 residues 379-382 (RHKK(Ac)AMC) as substrate by Fluorescence analysis
MDA-MB-231 [3] = experiment: Induction of cell cycle arrest in human MDA-MB-231 cells assessed as accumulation of cells at subG1 phase at 16 uM for 48 hrs by PI staining based flow cytometry analysis; type: functional
MDA-MB-231 [4] = experiment: Induction of apoptosis in human MDA-MB-231 cells assessed as increase in cleaved caspase-8 level incubated for 24 hrs by Western blot analysis; type: functional, cell-based
MDA-MB-231 [5] = experiment: Induction of apoptosis in human MDA-MB-231 cells assessed as increase in cleaved PARP-1 level incubated for 24 hrs by Western blot analysis; type: functional, cell-based
MDA-MB-231 [6] = experiment: Induction of cell cycle arrest in human MDA-MB-231 cells assessed as accumulation of cells at G1 phase at 4 uM for 24 hrs in presence of nocodazole by PI staining based flow cytometry analysis; type: functional
MDA-MB-231 [7] = experiment: Induction of cell cycle arrest in human MDA-MB-231 cells assessed as reduction in population between G1 to G2/M phases at 4 uM for 24 hrs by PI staining based flow cytometry analysis; type: functional
MDA-MB-231 [8] = experiment: Induction of apoptosis in human MDA-MB-231 cells assessed as increase in cleaved caspase-3 level incubated for 24 hrs by Western blot analysis; type: functional, cell-based
MDA-MB-231 [9] = experiment: Induction of cell cycle arrest in human MDA-MB-231 cells assessed as reduction in population at S phase at 4 uM for 24 hrs by PI staining based flow cytometry analysis; type: functional

Sequence of Histone deacetylase 4 (P56524 whole entry, the tested form may be a part): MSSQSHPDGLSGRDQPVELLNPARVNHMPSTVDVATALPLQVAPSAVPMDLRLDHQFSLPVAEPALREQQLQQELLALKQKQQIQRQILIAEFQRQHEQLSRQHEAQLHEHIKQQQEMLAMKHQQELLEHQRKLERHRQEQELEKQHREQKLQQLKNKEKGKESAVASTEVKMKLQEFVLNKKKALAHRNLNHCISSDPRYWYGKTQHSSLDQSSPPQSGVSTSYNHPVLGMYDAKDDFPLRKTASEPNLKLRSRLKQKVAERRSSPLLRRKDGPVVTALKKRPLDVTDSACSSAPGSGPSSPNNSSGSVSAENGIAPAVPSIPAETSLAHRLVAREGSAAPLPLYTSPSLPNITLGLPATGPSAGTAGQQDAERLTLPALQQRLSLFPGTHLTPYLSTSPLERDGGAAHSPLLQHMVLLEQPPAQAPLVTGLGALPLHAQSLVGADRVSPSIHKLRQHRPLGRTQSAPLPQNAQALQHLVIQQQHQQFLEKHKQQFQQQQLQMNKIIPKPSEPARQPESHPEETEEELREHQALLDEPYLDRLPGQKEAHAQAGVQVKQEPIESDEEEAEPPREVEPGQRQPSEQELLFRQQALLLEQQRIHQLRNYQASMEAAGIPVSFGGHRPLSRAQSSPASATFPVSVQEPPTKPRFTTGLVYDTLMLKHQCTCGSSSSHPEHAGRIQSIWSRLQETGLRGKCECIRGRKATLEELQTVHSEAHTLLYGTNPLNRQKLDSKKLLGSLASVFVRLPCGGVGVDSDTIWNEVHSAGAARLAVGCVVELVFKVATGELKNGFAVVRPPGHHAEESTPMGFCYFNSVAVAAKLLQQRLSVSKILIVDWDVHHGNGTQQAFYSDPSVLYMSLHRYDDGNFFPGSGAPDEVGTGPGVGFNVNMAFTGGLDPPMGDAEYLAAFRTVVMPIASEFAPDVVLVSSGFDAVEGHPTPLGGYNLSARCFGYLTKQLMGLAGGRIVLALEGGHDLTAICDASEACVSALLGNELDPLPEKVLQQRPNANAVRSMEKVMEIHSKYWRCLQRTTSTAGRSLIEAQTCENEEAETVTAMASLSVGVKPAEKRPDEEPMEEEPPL
Sequence of Histone deacetylase 9 (Q9UKV0 whole entry, the tested form may be a part): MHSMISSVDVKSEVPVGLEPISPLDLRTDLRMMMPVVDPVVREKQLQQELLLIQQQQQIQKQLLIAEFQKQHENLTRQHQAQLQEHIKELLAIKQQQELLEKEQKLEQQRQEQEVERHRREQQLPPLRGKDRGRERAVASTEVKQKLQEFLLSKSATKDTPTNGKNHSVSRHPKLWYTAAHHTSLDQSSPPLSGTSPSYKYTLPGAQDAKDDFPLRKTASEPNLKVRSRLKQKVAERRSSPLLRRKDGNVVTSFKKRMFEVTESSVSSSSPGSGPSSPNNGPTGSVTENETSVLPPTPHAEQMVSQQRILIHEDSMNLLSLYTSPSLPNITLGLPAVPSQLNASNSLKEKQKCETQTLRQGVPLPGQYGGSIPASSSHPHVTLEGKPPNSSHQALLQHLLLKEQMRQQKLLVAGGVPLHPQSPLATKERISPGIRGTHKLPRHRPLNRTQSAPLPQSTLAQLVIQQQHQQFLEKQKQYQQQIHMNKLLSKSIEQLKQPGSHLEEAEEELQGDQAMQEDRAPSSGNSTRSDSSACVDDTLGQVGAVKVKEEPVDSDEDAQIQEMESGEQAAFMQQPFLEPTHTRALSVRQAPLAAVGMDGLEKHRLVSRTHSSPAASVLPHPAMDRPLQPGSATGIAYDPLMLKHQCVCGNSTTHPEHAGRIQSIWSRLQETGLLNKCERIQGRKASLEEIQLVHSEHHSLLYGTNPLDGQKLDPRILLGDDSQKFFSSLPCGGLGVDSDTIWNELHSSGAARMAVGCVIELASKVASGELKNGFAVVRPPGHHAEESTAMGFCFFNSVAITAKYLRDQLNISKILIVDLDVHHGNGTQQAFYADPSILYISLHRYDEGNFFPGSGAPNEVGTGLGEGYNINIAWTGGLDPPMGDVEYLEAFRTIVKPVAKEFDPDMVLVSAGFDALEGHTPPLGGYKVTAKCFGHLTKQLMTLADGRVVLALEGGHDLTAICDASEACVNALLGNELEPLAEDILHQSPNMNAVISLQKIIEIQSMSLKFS
Sequence of Histone deacetylase 5 (Q9UQL6 whole entry, the tested form may be a part): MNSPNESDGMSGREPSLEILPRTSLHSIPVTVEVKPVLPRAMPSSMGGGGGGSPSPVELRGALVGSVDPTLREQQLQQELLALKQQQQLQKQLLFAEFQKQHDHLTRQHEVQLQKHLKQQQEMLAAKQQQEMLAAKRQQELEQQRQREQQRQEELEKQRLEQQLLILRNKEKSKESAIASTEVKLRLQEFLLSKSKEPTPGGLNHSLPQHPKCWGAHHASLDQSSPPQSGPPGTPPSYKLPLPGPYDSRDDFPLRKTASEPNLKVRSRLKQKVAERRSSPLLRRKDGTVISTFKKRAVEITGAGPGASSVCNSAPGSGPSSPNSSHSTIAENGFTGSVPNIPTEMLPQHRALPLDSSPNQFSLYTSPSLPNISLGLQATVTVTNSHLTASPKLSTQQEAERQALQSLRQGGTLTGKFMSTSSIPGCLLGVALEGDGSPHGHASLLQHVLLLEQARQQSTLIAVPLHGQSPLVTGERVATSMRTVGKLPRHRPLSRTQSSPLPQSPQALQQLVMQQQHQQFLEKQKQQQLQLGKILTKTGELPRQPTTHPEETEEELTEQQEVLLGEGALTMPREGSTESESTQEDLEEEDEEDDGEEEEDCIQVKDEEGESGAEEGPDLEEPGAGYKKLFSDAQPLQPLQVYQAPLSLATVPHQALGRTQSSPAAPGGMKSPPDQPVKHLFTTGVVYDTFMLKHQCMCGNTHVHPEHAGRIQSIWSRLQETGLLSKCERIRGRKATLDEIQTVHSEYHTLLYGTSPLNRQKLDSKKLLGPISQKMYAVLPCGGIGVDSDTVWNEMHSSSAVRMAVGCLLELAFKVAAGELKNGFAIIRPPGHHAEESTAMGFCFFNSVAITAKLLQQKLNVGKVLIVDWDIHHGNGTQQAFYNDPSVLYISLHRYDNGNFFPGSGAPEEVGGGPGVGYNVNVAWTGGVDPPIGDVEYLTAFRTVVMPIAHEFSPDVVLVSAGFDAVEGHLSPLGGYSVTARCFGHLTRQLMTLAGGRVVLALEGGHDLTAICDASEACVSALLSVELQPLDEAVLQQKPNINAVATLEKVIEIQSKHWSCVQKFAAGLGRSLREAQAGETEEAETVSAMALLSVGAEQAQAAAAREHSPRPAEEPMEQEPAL

| IC50 (cells) [µM] | IC50 (HepG2) [µM] | IC50 (MDA-MB-231 [1]) [µM] | IC50 (Histone deacetylase 7) [µM] | IC50 (Histone deacetylase 4) [µM] | IC50 (Histone deacetylase 5) [µM] | IC50 (Histone deacetylase 9) [µM] | SMILES | Activity (MCF7) | IC50 [2] [µM] | Activity (MDA-MB-468) | Activity (MDA-MB-231 [3]) | Activity (MDA-MB-231 [4]) | Activity (MDA-MB-231 [5]) | Activity (MDA-MB-231 [6]) | Activity (MDA-MB-231 [7]) | Activity (MDA-MB-231 [8]) | Activity (MDA-MB-231 [9]) |
| --- | --- | --- | --- | --- | --- | --- | --- | --- | --- | --- | --- | --- | --- | --- | --- | --- | --- |
| 17.1 | > 8 | 3.6 |  |  |  |  | Nc1ccc(F)cc1NC(=O)c1ccc(CNC(=O)/C=C/c2cccnc2)cc1 | Active | 20.4 | Active |  |  |  |  |  |  |  |
|  |  |  | > 10 | > 10 | > 10 | > 10 | Nc1nc(Nc2ccc(F)c(Cl)c2)c2ncn(Cc3ccc(C(=O)Nc4ccccc4N)cc3)c2n1 |  |  |  |  |  |  |  |  |  |  |
|  | 4.54 |  |  |  |  |  | Nc1ccccc1NC(=O)c1ccc(CNC(=O)OCc2cccnc2)cc1 [ENTINOSTAT] | Active | 13 | Active | Active | Active | Active | Active | Active | Active | Active |
